Measurements from patent US9802899B2, “Heterocyclic compounds as pesticides” (BAYER CROPSCIENCE AG, priority 2012, dated 2017).

assay: Determination of the log P values by HPLC (formic acid method); format: physicochemical; conditions: reversed-phase HPLC column (C 18), reversed-phase column (C 18), acidic range (pH 3.4), 55° C.
Procedure: 1) Description of Method for Determination of the Log P Values (Formic Acid Method)
Eluents for determination in the acidic range (pH 3.4):
Eluent A: acetonitrile+1 ml of formic acid/liter. Eluent B: water+0.9 ml of formic acid/liter.
The lambda max values were determined in the maxima of the chromatographic signals using the UV spectra from 200 nm to 400 nm.

| SMILES | chromatographic logP |
| --- | --- |
| N#Cc1cc(F)c(-n2ccc(NC(=O)c3ccccc3C(F)(F)F)n2)nc1Cl [Compound I-1-606, N-[1-(6-Chloro-5-cyano-3-fluoropyridin-2-yl)-1H-pyrazol-3-yl]-2-(trifluoromethyl)benzamide] | 2.94 |
| Nc1ccn(-c2cc(F)ccc2F)n1 [1-(2,5-Difluorophenyl)-1H-pyrazole-3-amine] | 1.58 |
| Cc1nc(-n2ccc(N)n2)c(F)cc1F [1-(3,5-Difluoro-6-methylpyridin-2-yl)-1H-pyrazole-3-amine] | 1.25 |
| Nc1cnn(-c2ncc(F)cc2F)n1 [Ex.45-V, 2-(3,5-Difluoropyridin-2-yl)-2H-1,2,3-triazole-4-amine] | 0.65 |

The next lines start with the values.

| chromatographic logP | SMILES |
| --- | --- |
| 2.28 | CC(=O)Nc1cc(F)c(-n2ccc(NC(=O)c3ccccc3C(F)(F)F)n2)c(F)c1 [Compound I-1-583, N-[1-(4-Acetamido-2,6-difluorophenyl)-1H-pyrazol-3-yl]-2-(trifluoromethyl)benzamide] |
| 2.13 | CCOc1c(Cl)cccc1-n1ccc(N)n1 [1-(3-Chloro-2-ethoxyphenyl)-1H-pyrazole-3-amine] |

same assay, conditions: reversed-phase column (C 18), acidic range (pH 3.4), 55° C.

| SMILES | log P |
| --- | --- |
| O=C(Nc1ccn(-c2ccc(Cl)cc2Cl)n1)c1ccccc1C(F)(F)F [Compound I-1-197] | 3.51 |
| CCn1ncc(I)c1C(=O)Nc1ccn(-c2c(F)cccc2F)n1 [Compound I-1-235] | 2.76 |
| O=C(Nc1ccn(-c2ncccc2C(F)(F)F)n1)c1ccccc1Cl [Compound I-1-425] | 2.57 |
| O=C(Nc1ccn(-c2c(F)cccc2F)n1)c1ccccc1C(F)F [Compound I-1-74] | 2.73 |
| Cc1cc(NC(=O)c2c(F)cccc2F)nn1-c1ccc(F)cc1F [Compound I-1-206] | 3.42 |
| CCc1ccccc1C(=O)Nc1ccn(-c2c(F)cccc2F)n1 [Compound I-1-78] | 2.92 |
| O=C(Nc1ccn(-c2ncnc(F)c2F)n1)c1ccccc1Br [Compound I-1-170] | 2.46 |
| CCn1nc(C)c(Cl)c1C(=O)Nc1ccn(-c2ncc(F)cc2F)n1 [Compound I-1-527] | 2.93 |
| O=C(Nc1ccn(-c2ccccc2Br)n1)c1ncccc1C(F)(F)F [Compound I-1-54] | 2.99 |
| O=C(Nc1nn(-c2ccccc2Cl)cc1Br)c1ccccc1I [Compound I-1-366] | 3.12 |
| Cn1nc(C(F)(F)F)c(C(=O)Nc2cnn(-c3ncccc3Cl)n2)c1F [Compound I-2-16] | 2.19 |
| Cc1ccc(C#N)c(-n2ccc(NC(=O)c3ccccc3C(F)(F)F)n2)n1 [Compound I-1-572] | 2.92 |
| CC(C)c1nn(C)c(C(=O)Nc2ccn(-c3ncc(F)cc3F)n2)c1[N+](=O)[O-] [Compound I-1-509] | 2.72 |
| Cc1cn(-c2ccccc2Cl)nc1NC(=O)c1ccccc1C(F)(F)F [Compound I-1-345] | 3.01 |
| Cn1nc(C(C)(C)C)c(Cl)c1C(=O)Nc1ccn(-c2ncc(F)cc2F)n1 [Compound I-1-513] | 3.89 |
| O=C(NC1=NN(c2c(F)cccc2F)CC1)c1ccccc1I [Compound I-4-4] | 2.31 |
| O=C(Nc1ccn(-c2ncnc(F)c2F)n1)c1c(F)cccc1F [Compound I-1-171] | 2.29 |
| O=C(Nc1cnn(-c2ncccc2Br)n1)c1ccccc1C(F)(F)F [Compound I-2-17] | 2.46 |
| O=C(Nc1ccn(-c2ncc(F)cc2F)n1)c1ncncc1Cl [Compound I-1-545] | 1.92 |
| O=C(Nc1ccn(-c2ncc(F)cc2F)n1)c1cscc1Br [Compound I-1-524] | 2.30 |
| Cn1nc(C(F)F)c(C(=O)Nc2ccn(-c3ccccc3Cl)n2)c1F [Compound I-1-49] | 2.59 |

| SMILES | log P |
| --- | --- |
| O=C(Nc1ccn(-c2c(F)cccc2F)n1)c1ccnn1C(F)F [Compound I-1-111] | 2.40 |
| O=C(c1ccccc1Cl)N(CC1CC1)c1ccn(-c2ccccc2Cl)n1 [Compound I-1-24] | 3.85 |
| O=C(Nc1cnn(-c2ncccc2Cl)n1)c1ccccc1I [Compound I-2-14] | 2.36 |
| O=C(Nc1ccn(-c2ccccc2[N+](=O)[O-])n1)c1ccccc1Br [Compound I-1-418] | 2.50 |
| O=C(Nc1ccn(-c2ncccc2C(F)(F)F)n1)c1ccccc1Br [Compound I-1-424] | 2.61 |
| O=C(Nc1ccn(-c2c(F)cccc2F)c1)c1ccccc1I [Compound I-3-3] | 2.96 |
| O=C(Nc1ccn(-c2ccccc2[N+](=O)[O-])n1)c1ccccc1Cl [Compound I-1-125] | 2.46 |
| Cc1cc(NC(=O)c2cccnc2Br)nn1-c1ccccc1Cl [Compound I-1-359] | 1.85 |
| O=C(Nc1ccn(-c2ccc(Cl)cc2Cl)n1)c1ccccc1C(F)(F)F [Compound I-1-198] | 3.25 |
| O=C(Nc1cnn(-c2c(F)cccc2F)n1)c1ccccc1Br [Compound I-2-36] | 2.71 |
| O=C(Nc1ccn(-c2c(F)cccc2F)n1)c1ccccc1-n1cncn1 [Compound I-1-89] | 1.66 |
| O=C(Nc1ccn(-c2cccc(F)c2F)n1)c1ccccc1C(F)(F)F [Compound I-1-62] | 3.07 |
| O=C(Nc1ccn(-c2ccccc2Cl)n1)c1c(Cl)cccc1Cl [Compound I-1-351] | 3.00 |
| O=C(Nc1ccn(-c2cncc(F)n2)n1)c1cccnc1C(F)(F)F [Compound I-1-402] | 2.76 |
| O=C(Nc1ccn(-c2ccccc2Br)n1)c1c(F)cccc1F [Compound I-1-334] | 2.70 |
| N#Cc1cc(F)ccc1-n1ccc(NC(=O)c2ccccc2I)n1 [Compound I-1-634] | 2.57 |
| O=C(Nc1ccn(-c2ncccc2Cl)n1)c1cccnc1Br [Compound I-1-565] | 1.68 |
| Cc1oc(C)c(C(=O)Nc2ccn(-c3ncc(F)cc3F)n2)c1Br [Compound I-1-523] | 3.18 |
| O=C(Nc1cnn(-c2ncccc2F)n1)c1ccccc1Cl [Compound I-2-48] | 1.99 |
| O=C(Nc1cnn(-c2ncc(F)cc2F)n1)c1ccccc1Cl [Compound I-2-70] | 2.22 |
| O=C(Nc1cnn(-c2ccccc2Br)n1)c1ccccc1C(F)(F)F [Compound I-2-6] | 3.03 |

Further lines, results first:

| log P | SMILES |
| --- | --- |
| 2.44 | O=C(Nc1nn(-c2ncc(F)cc2F)cc1F)c1ccccc1C(F)(F)F [Compound I-1-465] |
| 2.03 | N#Cc1cncnc1-n1ccc(NC(=O)c2c(F)cccc2F)n1 [Compound I-1-595] |
| 2.30 | O=C(Nc1ccn(-c2ncccc2F)n1)c1ccsc1I [Compound I-1-581] |
| 2.20 | O=C(Nc1cnn(-c2ncccc2F)n1)c1ccsc1I [Compound I-2-50] |
| 3.05 | O=C(Nc1ccn(-c2ccccc2Cl)n1)c1ccsc1I [Compound I-1-47] |
| 1.89 | O=C(Nc1ccn(-c2ncc(F)cc2F)n1)c1nccnc1Cl [Compound I-1-485] |
| 2.27 | Cn1ccc([N+](=O)[O-])c1C(=O)Nc1ccn(-c2ncc(F)cc2F)n1 [Compound I-1-452] |
| 2.77 | O=C(Nc1nn(-c2ccccc2Br)nc1Cl)c1cccnc1C(F)(F)F [Compound I-2-28] |
| 3.28 | O=C(Nc1cnn(-c2ncc(C(F)(F)F)cc2Cl)n1)c1ccccc1C(F)(F)F [Compound I-2-74] |
| 2.22 | Cc1nonc1C(=O)Nc1ccn(-c2ncc(F)cc2F)n1 [Compound I-1-542] |
| 3.41 | O=C(Nc1ccn(-c2ncc(C(F)(F)F)cc2Cl)n1)c1ccccc1C(F)(F)F [Compound I-1-560] |
| 3.26 | N#Cc1cc(F)c(-n2nc(NC(=O)c3ccccc3C(F)(F)F)c3c(F)cccc32)cc1F [Compound I-5-10] |
| 2.13 | Cc1cc(NC(=O)c2cccnc2C(F)(F)F)nn1-c1ccccc1Cl [Compound I-1-349] |
| 2.46 | O=C(Nc1ccn(-c2ncccc2C(F)(F)F)n1)c1c(F)cccc1F [Compound I-1-423] |
| 2.13 | O=C(Nc1ccn(-c2ncc(F)cn2)n1)c1ccccc1C(F)(F)F [Compound I-1-600] |
| 2.52 | Cn1cc(C(=O)Nc2ccn(-c3c(F)cccc3F)n2)c(C(F)(F)F)c1 [Compound I-1-240] |

| log P | SMILES |
| --- | --- |
| 2.67 | O=C(Nc1nn(-c2ncccc2F)c2ccccc12)c1ccccc1Br [Compound I-5-4] |
| 3.44 | C=CCN(C(=O)c1ccccc1C(F)(F)F)c1ccn(-c2c(F)cccc2F)n1 [Compound I-1-255] |
| 3.34 | O=C(Nc1ccn(-c2ccccc2Cl)n1)c1sccc1I [Compound I-1-379] |
| 3.05 | CCCn1cc(Cl)c(C(=O)Nc2ccn(-c3c(F)cccc3F)n2)n1 [Compound I-1-315] |
| 2.41 | CC1=C(C(=O)Nc2ccn(-c3c(F)cccc3F)n2)SCCO1 [Compound I-1-101] |
| 3.28 | O=C(Nc1cnn(-c2ncc(C(F)(F)F)cc2Cl)n1)c1ccccc1I [Compound I-2-75] |
| 1.71 | O=C(Nc1cnn(-c2ncc(F)cc2F)n1)c1cccnc1Br [Compound I-2-69] |
| 2.15 | Cc1nn(C)c(F)c1C(=O)Nc1ccn(-c2ccccc2Cl)n1 [Compound I-1-382] |
| 3.05 | O=C(Nc1nn(-c2cc(F)cnc2F)c2ccccc12)c1ccccc1Br [Compound I-5-6] |
| 2.64 | O=C(Nc1ccn(-c2ncc(F)cc2Cl)n1)c1ccccc1C(F)(F)F [Compound I-1-183] |
| 2.52 | O=C(Nc1ccn(-c2c(F)cccc2F)c1)c1cccnc1C(F)(F)F [Compound I-3-5] |
| 1.72 | O=C(Nc1ccn(-c2ncccn2)n1)c1ccccc1Br [Compound I-1-168] |
| 3.21 | O=C(Nc1nn(-c2ccccc2Cl)nc1Cl)c1ccccc1C(F)(F)F [Compound I-2-19] |
| 2.59 | O=C(NC1=NN(c2c(F)cccc2F)CC1)c1c(F)cccc1F [Compound I-4-3] |
| 2.72 | O=C(Nc1ccn(-c2ncccc2C(F)(F)F)n1)c1ccccc1C(F)(F)F [Compound I-1-422] |
